Laboratory results: ChEMBL document CHEMBL1137563, “3,5-bis(3'-indolyl)pyrazoles, analogues of marine alkaloid nortopsentin: synthesis and antitumor properties” (2007)
The source made the active and inactive calls. No cut-off for these calls is given here.

Assays:
[1] = test system: RPMI-8226; experiment: Antitumor activity against RPMI8226 cells; assay type: functional; conditions: Homo sapiens
[2] = test system: SK-MEL-5; experiment: Antitumor activity against SK-MEL-5 cells; assay type: functional; conditions: Homo sapiens
[3] = test system: UACC-62; experiment: Antitumor activity against UACC62 cells; assay type: functional; conditions: Homo sapiens
[4] = test system: NCI-H23; experiment: Antitumor activity against NCI-H23 cells; assay type: functional; conditions: Homo sapiens
[5] = test system: 786-0; experiment: Antitumor activity against 7860 cells; assay type: functional; conditions: Homo sapiens
[6] = test system: NCI-H226; experiment: Antitumor activity against NCI-H226 cells; assay type: functional; conditions: Homo sapiens
[7] = test system: HOP-62; experiment: Antitumor activity against HOP62 cells; assay type: functional; conditions: Homo sapiens
[8] = test system: T47D; experiment: Antitumor activity against T47D cells; assay type: functional; conditions: Homo sapiens
[9] = test system: PC-3; experiment: Antitumor activity against PC3 cells; assay type: functional; conditions: Homo sapiens
[10] = test system: SF-295; experiment: Antitumor activity against SF295 cells; assay type: functional; conditions: Homo sapiens
[11] = test system: SNB-75; experiment: Antitumor activity against SNB75 cells; assay type: functional; conditions: Homo sapiens
[12] = test system: SNB-19; experiment: Antitumor activity against SNB19 cells; assay type: functional; conditions: Homo sapiens
[13] = test system: Malme-3M; experiment: Antitumor activity against MALME-3M cells; assay type: functional; conditions: Homo sapiens
[14] = test system: UO-31; experiment: Antitumor activity against UO31 cells; assay type: functional; conditions: Homo sapiens
[15] = test system: MDA-MB-435; experiment: Antitumor activity against MDA-MB-435 cells; assay type: functional; conditions: Homo sapiens
[16] = test system: OVCAR-4; experiment: Antitumor activity against OVCAR4 cells; assay type: functional; conditions: Homo sapiens
[17] = test system: K562; experiment: Antitumor activity against K562 cells; assay type: functional; conditions: Homo sapiens
[18] = test system: LOX IMVI; experiment: Antitumor activity against LOX-IMVI cells; assay type: functional; conditions: Homo sapiens
[19] = test system: NCI/ADR-RES; experiment: Antitumor activity against NCI/ADRRES cells; assay type: functional; conditions: Homo sapiens
[20] = test system: CAKI-1; experiment: Antitumor activity against CAKI1 cells; assay type: functional; conditions: Homo sapiens
[21] = test system: U-251; experiment: Antitumor activity against U251 cells; assay type: functional; conditions: Homo sapiens
[22] = test system: NCI-H460; experiment: Antitumor activity against NCI-H460 cells; assay type: functional; conditions: Homo sapiens
[23] = test system: ACHN; experiment: Antitumor activity against ACHN cells; assay type: functional; conditions: Homo sapiens
[24] = test system: M14; experiment: Antitumor activity against M14 cells; assay type: functional; conditions: Homo sapiens
[25] = test system: A549; experiment: Antitumor activity against A549 cells; assay type: functional; conditions: Homo sapiens
[26] = test system: KM12; experiment: Antitumor activity against KM12 cells; assay type: functional; conditions: Homo sapiens
[27] = test system: MDA-MB-231; experiment: Antitumor activity against MDA-MB-231 cells; assay type: functional; conditions: Homo sapiens
[28] = test system: EKVX; experiment: Antitumor activity against EKVX cells; assay type: functional; conditions: Homo sapiens
[29] = test system: Hs-578T; experiment: Antitumor activity against HS578T cells; assay type: functional; conditions: Homo sapiens
[30] = Antitumor activity against HL60(TB) cells; assay type: functional, HL-60(TB); conditions: Homo sapiens, HL-60
[31] = test system: MOLT-4; experiment: Antitumor activity against MOLT4 cells; assay type: functional; conditions: Homo sapiens
[32] = test system: TK-10; experiment: Antitumor activity against TK10 cells; assay type: functional; conditions: Homo sapiens
[33] = test system: HCC 2998; experiment: Antitumor activity against HCC2998 cells; assay type: functional; conditions: Homo sapiens
[34] = test system: SF-268; experiment: Antitumor activity against SF268 cells; assay type: functional; conditions: Homo sapiens
[35] = test system: SK-OV-3; experiment: Antitumor activity against SKOV3 cells; assay type: functional; conditions: Homo sapiens
[36] = test system: NCI-H522; experiment: Antitumor activity against NCI-H522 cells; assay type: functional; conditions: Homo sapiens
[37] = test system: SK-MEL-2; experiment: Antitumor activity against SK-MEL-2 cells; assay type: functional; conditions: Homo sapiens
[38] = test system: SW-620; experiment: Antitumor activity against SW620 cells; assay type: functional; conditions: Homo sapiens
[39] = test system: UACC-257; experiment: Antitumor activity against UACC257 cells; assay type: functional; conditions: Homo sapiens
[40] = test system: OVCAR-8; experiment: Antitumor activity against OVCAR8 cells; assay type: functional; conditions: Homo sapiens
[41] = test system: BT-549; experiment: Antitumor activity against BT549 cells; assay type: functional; conditions: Homo sapiens
[42] = target: DNA topoisomerase 2-alpha (Homo sapiens) (UniProt P11388); experiment: Inhibition of human recombinant topoisomerase 2-mediated relaxation of supercoiled plasmid pBR322 DNA at 100 uM
Chain of DNA topoisomerase 2-alpha (Homo sapiens) (P11388 whole entry): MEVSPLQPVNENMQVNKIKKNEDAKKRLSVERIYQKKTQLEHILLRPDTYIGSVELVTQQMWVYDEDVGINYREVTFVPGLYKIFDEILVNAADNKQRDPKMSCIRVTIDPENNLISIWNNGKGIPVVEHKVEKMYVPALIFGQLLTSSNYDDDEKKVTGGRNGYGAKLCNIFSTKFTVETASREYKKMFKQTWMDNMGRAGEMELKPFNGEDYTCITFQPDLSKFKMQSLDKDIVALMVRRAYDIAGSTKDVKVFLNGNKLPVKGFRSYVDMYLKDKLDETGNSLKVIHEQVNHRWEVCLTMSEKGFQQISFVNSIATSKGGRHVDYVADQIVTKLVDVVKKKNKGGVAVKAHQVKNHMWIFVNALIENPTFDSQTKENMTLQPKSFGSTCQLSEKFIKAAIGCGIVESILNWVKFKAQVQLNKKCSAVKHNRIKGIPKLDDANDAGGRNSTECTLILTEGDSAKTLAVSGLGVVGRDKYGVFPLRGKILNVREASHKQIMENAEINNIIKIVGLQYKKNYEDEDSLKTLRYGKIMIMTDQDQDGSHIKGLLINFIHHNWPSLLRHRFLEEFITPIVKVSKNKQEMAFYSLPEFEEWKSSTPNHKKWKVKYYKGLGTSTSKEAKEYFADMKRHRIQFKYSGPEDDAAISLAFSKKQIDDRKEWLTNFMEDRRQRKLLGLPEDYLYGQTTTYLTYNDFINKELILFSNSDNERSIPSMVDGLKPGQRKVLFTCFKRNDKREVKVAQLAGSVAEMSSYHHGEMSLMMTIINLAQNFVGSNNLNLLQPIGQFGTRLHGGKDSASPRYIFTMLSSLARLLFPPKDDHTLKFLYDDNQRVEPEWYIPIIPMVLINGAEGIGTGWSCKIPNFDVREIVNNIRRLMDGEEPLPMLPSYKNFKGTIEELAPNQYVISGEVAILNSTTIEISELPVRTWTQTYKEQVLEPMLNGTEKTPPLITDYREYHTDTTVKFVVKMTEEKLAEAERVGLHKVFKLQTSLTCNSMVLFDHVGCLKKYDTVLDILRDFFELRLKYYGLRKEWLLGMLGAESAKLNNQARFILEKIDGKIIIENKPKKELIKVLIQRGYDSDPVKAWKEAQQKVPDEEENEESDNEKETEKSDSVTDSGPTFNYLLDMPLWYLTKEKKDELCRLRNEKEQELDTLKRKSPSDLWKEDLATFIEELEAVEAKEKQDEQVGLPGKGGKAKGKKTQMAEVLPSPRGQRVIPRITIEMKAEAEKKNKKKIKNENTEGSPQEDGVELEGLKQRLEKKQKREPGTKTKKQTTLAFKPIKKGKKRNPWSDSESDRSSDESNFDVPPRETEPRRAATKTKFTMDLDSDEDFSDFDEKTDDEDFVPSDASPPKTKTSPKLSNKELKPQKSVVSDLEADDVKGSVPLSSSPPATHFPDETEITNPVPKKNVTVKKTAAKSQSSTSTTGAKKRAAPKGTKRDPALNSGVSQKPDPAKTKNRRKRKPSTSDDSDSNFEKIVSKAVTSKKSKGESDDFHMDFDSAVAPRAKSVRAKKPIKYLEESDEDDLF

[43] = test system: SK-MEL-28; experiment: Antitumor activity against SK-MEL-28 cells; assay type: functional; conditions: Homo sapiens
[44] = test system: SF-539; experiment: Antitumor activity against SF539 cells; assay type: functional; conditions: Homo sapiens
[45] = test system: HOP-92; experiment: Antitumor activity against HOP92 cells; assay type: functional; conditions: Homo sapiens
[46] = test system: NCI-H322M; experiment: Antitumor activity against NCI-H322M cells; assay type: functional; conditions: Homo sapiens
[47] = test system: OVCAR-3; experiment: Antitumor activity against OVCAR-3 cells; assay type: functional; conditions: Homo sapiens
[48] = test system: HCT-116; experiment: Antitumor activity against HCT116 cells; assay type: functional; conditions: Homo sapiens
[49] = test system: RXF 393; experiment: Antitumor activity against RXF393 cells; assay type: functional; conditions: Homo sapiens
[50] = test system: IGROV-1; experiment: Antitumor activity against IGROV1 cells; assay type: functional; conditions: Homo sapiens
[51] = test system: HT-29; experiment: Antitumor activity against HT29 cells; assay type: functional; conditions: Homo sapiens
[52] = test system: OVCAR-5; experiment: Antitumor activity against OVCAR5 cells; assay type: functional; conditions: Homo sapiens
[53] = test system: MCF7; experiment: Antitumor activity against MCF7 cells; assay type: functional; conditions: Homo sapiens
[54] = test system: SR; experiment: Antitumor activity against SR cells; assay type: functional; conditions: Homo sapiens
[55] = test system: DU-145; experiment: Antitumor activity against DU145 cells; assay type: functional; conditions: Homo sapiens
[56] = test system: CCRF-CEM; experiment: Antitumor activity against CCRF-CEM cells; assay type: functional; conditions: Homo sapiens
[57] = test system: COLO 205; experiment: Antitumor activity against COLO205 cells; assay type: functional; conditions: Homo sapiens
[58] = test system: A498; experiment: Antitumor activity against A498 cells; assay type: functional; conditions: Homo sapiens
[59] = test system: HCT-15; experiment: Antitumor activity against HCT15 cells; assay type: functional; conditions: Homo sapiens
[60] = target: DNA topoisomerase 2-alpha (Homo sapiens) (UniProt P11388); experiment: Inhibition of human recombinant topoisomerase 2-mediated relaxation of supercoiled plasmid pBR322 DNA at 50 uM
[61] = test system: SN12C; experiment: Antitumor activity against SN12C cells; assay type: functional; conditions: Homo sapiens
[62] = target: DNA topoisomerase 2-alpha (Homo sapiens) (UniProt P11388); experiment: Inhibition of human recombinant topoisomerase 2-mediated relaxation of supercoiled plasmid pBR322 DNA at 8 uM
[63] = read-out: LC50 (the source's name)

`Cn1cc(-c2cc(-c3cn(C)c4ccc(Cl)cc34)[nH]n2)c2cc(Cl)ccc21` gave a GI50 [1] of 6.79 µM, a GI50 [2] of 1.79 µM and a GI50 [3] of 1.63 µM. For the same compound, the GI50 [4] was 2.49 µM, the GI50 [5] was 3.41 µM and the GI50 [6] was 5.29 µM. The GI50 [7] was 7.98 µM, the GI50 [8] was 4.06 µM and the GI50 [9] was 3.05 µM. It also gave a GI50 [10] of 2.52 µM, a GI50 [11] of 4.25 µM and a GI50 [12] of 4.09 µM. For the same compound, the GI50 [13] was 9.64 µM, the GI50 [14] was 3.01 µM and the GI50 [15] was 2.99 µM. It also gave a GI50 [16] of 5.82 µM, a GI50 [17] of 2.78 µM and a GI50 [18] of 1.7 µM. The TGI [18] was 3.8 µM, the CC50 [18, 63] was 8.53 µM and the GI50 [19] was 2.25 µM. For the same compound, the GI50 [20] was 1.7 µM, the GI50 [21] was 3.37 µM and the GI50 [22] was 2.35 µM. The GI50 [23] was 3.23 µM, the GI50 [24] was 2.15 µM and the GI50 [25] was 3.24 µM. It also gave a GI50 [26] of 3.45 µM, a GI50 [27] of 2.95 µM and a GI50 [28] of 3.15 µM. For the same compound, the GI50 [29] was 3.27 µM, the GI50 [30] was 4.45 µM and the GI50 [31] was 1.55 µM. For the same compound, the GI50 [32] was 5.16 µM, the GI50 [33] was 1.71 µM and the TGI [33] was 3.84 µM. For the same compound, the CC50 [33, 63] was 8.63 µM, the GI50 [34] was 5.29 µM and the GI50 [35] was 5.81 µM. It also gave a GI50 [36] of 1.75 µM, a GI50 [37] of 2.34 µM and a GI50 [38] of 3.52 µM. For the same compound, the GI50 [39] was 4.27 µM, the GI50 [40] was 4.03 µM and the GI50 [41] was 2.03 µM. The Activity [42] was “Active”, the GI50 [43] was 4.8 µM and the GI50 [44] was 1.81 µM. For the same compound, the TGI [44] was 3.47 µM, the CC50 [44, 63] was 6.62 µM and the GI50 [45] was 1.86 µM. The GI50 [46] was 5.73 µM, the GI50 [47] was 4.41 µM and the GI50 [48] was 3.82 µM. It also gave a GI50 [49] of 3.03 µM, a GI50 [50] of 2.55 µM and a GI50 [51] of 3.57 µM. For the same compound, the GI50 [52] was 3.11 µM, the GI50 [53] was 2.64 µM and the GI50 [54] was 2.36 µM. It also gave a GI50 [55] of 9.6 µM, a GI50 [56] of 6.4 µM and a GI50 [57] of 2.22 µM. It also gave a GI50 [58] of 2.44 µM and a GI50 [59] of 3.01 µM.

For `Cn1cc(-c2cc(-c3cn(C)c4ccccc34)[nH]n2)c2ccccc21`, the GI50 [1] was 37.8 µM, the GI50 [2] was 13.1 µM and the GI50 [3] was 16.4 µM. The GI50 [4] was 22 µM, the GI50 [5] was 14.1 µM and the GI50 [6] was 19.8 µM. For the same compound, the GI50 [7] was 17.3 µM, the GI50 [8] was 79.7 µM and the GI50 [9] was 8.11 µM. For the same compound, the GI50 [10] was 17.1 µM, the GI50 [11] was 18.4 µM and the GI50 [12] was 27 µM. For the same compound, the GI50 [13] was 93.1 µM, the GI50 [14] was 37.6 µM and the GI50 [16] was 34.9 µM. The GI50 [17] was 42.1 µM, the GI50 [18] was 5.38 µM and the GI50 [19] was 27.6 µM. The Activity [60] was “Active”, the GI50 [20] was > 100 µM and the GI50 [21] was 12.9 µM. The GI50 [61] was 1.95 µM, the GI50 [22] was 4.48 µM and the GI50 [23] was 7.67 µM. For the same compound, the GI50 [24] was > 100 µM, the GI50 [25] was 16.3 µM and the GI50 [26] was 4.58 µM. The GI50 [27] was 8.06 µM, the GI50 [28] was 27.2 µM and the GI50 [29] was 18.5 µM. The GI50 [30] was 15.4 µM, the GI50 [31] was 4.75 µM and the GI50 [32] was 37.4 µM. The GI50 [33] was 4.74 µM, the GI50 [34] was 16 µM and the GI50 [35] was 31.6 µM. For the same compound, the GI50 [36] was 22.1 µM, the GI50 [37] was 57.5 µM and the GI50 [38] was > 100 µM. The GI50 [39] was 80.6 µM, the GI50 [40] was 28.8 µM and the GI50 [41] was 15.9 µM. The GI50 [43] was > 100 µM, the GI50 [44] was 16.2 µM and the GI50 [45] was 2.06 µM. For the same compound, the GI50 [46] was > 100 µM, the GI50 [47] was 28.4 µM and the GI50 [48] was 19 µM. It also gave a GI50 [49] of 14.7 µM, a GI50 [50] of 8.9 µM and a GI50 [51] of 5.35 µM. For the same compound, the GI50 [52] was > 100 µM, the GI50 [53] was 3.95 µM and the GI50 [54] was 3.46 µM. It also gave a GI50 [55] of 15.6 µM, a GI50 [56] of 14.4 µM and a GI50 [57] of 7.98 µM. It also gave a GI50 [58] of 19.6 µM and a GI50 [59] of 8.68 µM.

With `COc1cc(NS(C)(=O)=O)ccc1Nc1c2ccccc2nc2ccccc12` the Activity [62] was “Active”.
